# Laboratory results: ChEMBL document CHEMBL4622851, “Cytotoxicity of 4-substituted quinoline derivatives: Anticancer and antileishmanial potential” (Bioorg Med Chem, 2020)
# The source made the active and inactive calls. No cut-off for these calls is given here.
# Columns and labels:
# [1] = tested on: SK-MEL-147; assay: Cytotoxicity against human SK-MEL-147 cells assessed as reduction in cell viability at 50 and 100 uM after 24 hrs by MTT assay; type: functional, cell-based
# [2] = tested on: Jurkat; assay: Cytotoxicity against human Jurkat cells assessed as reduction in cell viability at 50 and 100 uM after 24 hrs by MTT assay; type: functional, cell-based
# [3] = tested on: SK-MEL-147; assay: Cytotoxicity against human SK-MEL-147 cells assessed as reduction in cell viability after 24 hrs by MTT assay; type: functional, cell-based; conditions: SK-MEL-147, 24 h
# [4] = tested on: Jurkat; assay: Cytotoxicity against human Jurkat cells assessed as reduction in cell viability after 24 hrs by MTT assay; type: functional, cell-based
# [5] = tested on: SK-MEL-147; assay: Cytotoxicity against human SK-MEL-147 cells assessed as reduction in cell viability at EC50 concentration preincubated for 1 hr in presence of GSH measured after 24 hrs by MTT assay; type: functional, cell-based
# [6] = tested on: SK-MEL-147; assay: Induction of apoptosis in human SK-MEL-147 cells assessed as early apoptotic cells at 20 uM after 24 hrs by Annexin V-FITC/propidium iodide staining based flow cytometry; type: functional, cell-based
# [7] = tested on: SK-MEL-147; assay: Induction of apoptosis in human SK-MEL-147 cells assessed as late apoptotic cells at 20 uM after 24 hrs by Annexin V-FITC/propidium iodide staining based flow cytometry; type: functional, cell-based
# [8] = tested on: SK-MEL-147; assay: Induction of apoptosis in human SK-MEL-147 cells assessed as necrotic cells at 20 uM after 24 hrs by Annexin V-FITC/propidium iodide staining based flow cytometry; type: functional, cell-based
# [9] = tested on: SK-MEL-147; assay: Induction of apoptosis in human SK-MEL-147 cells assessed as mitochondrial membrane potential dissipation after 24 hrs by TMRM staining based fluorescence microscopic method; type: functional, cell-based
# [10] = tested on: SK-MEL-147; assay: Induction of apoptosis in human SK-MEL-147 cells assessed as increase in reactive oxygen species generation by CM-H2DCFDA staining based flow cytometric analysis; type: functional, cell-based
# [11] = tested on: SK-MEL-147; assay: Induction of apoptosis in human SK-MEL-147 cells assessed mitochondrial permeabilization after 24 hrs by mitotracker green staining based microscopic analysis; type: functional, cell-based
# [12] = tested on: SK-MEL-147; assay: Cytotoxicity against human SK-MEL-147 cells assessed as reduction in cell viability at EC50 concentration preincubated for 1 hr in presence of DTT measured after 24 hrs by MTT assay; type: functional, cell-based
# [13] = tested on: SK-MEL-147; assay: Cytotoxicity against human SK-MEL-147 cells assessed as reduction in cell viability at EC50 concentration preincubated for 1 hr in presence of N-acetyl cysteine measured after 24 hrs by MTT assay; type: functional, cell-based
# [14] = tested on: SK-MEL; assay: Cytotoxicity against human SK-MEL-147 cells assessed as reduction in cell viability at EC50 concentration preincubated for 1 hr in presence of EGTA measured after 24 hrs by MTT assay; type: functional, cell-based
# [15] = tested on: SK-MEL; assay: Cytotoxicity against human SK-MEL-147 cells assessed as reduction in cell viability at EC50 concentration preincubated for 1 hr in presence of BAPTA measured after 24 hrs by MTT assay; type: functional, cell-based
# [16] = tested on: SK-MEL-147; assay: Cytotoxicity against human SK-MEL-147 cells assessed as reduction in cell viability at EC50 concentration preincubated for 1 hr in presence of Boc-D-FMK measured after 24 hrs by MTT assay; type: functional, cell-based
# [17] = tested on: SK-MEL-147; assay: Cytotoxicity against human SK-MEL-147 cells assessed as reduction in cell viability at EC50 concentration preincubated for 1 hr in presence of E-64 measured after 24 hrs by MTT assay; type: functional, cell-based
# [18] = species on record: Rattus norvegicus; assay: Induction of mitochondrial permeabilization in rat liver mitochondria assessed as mitochondrial transmembrane potential dissipation by rhodamine-123 dye based spectrofluorometer analysis; type: functional
# [19] = species on record: Rattus norvegicus; assay: Induction of mitochondrial permeabilization in rat liver mitochondria assessed as calcium efflux by calcium green based spectrofluorometer analysis; type: functional
# [20] = species on record: Rattus norvegicus; assay: Induction of mitochondrial permeabilization in rat liver mitochondria assessed as mitochondrial transmembrane potential dissipation in presence of DTT by rhodamine-123 dye based spectrofluorometer analysis; type: functional
# [21] = species on record: Rattus norvegicus; assay: Induction of mitochondrial permeabilization in rat liver mitochondria assessed as mitochondrial transmembrane potential dissipation in presence of CsA by rhodamine-123 dye based spectrofluorometer analysis; type: functional
# [22] = species on record: Rattus norvegicus; assay: Induction of mitochondrial permeabilization in rat liver mitochondria assessed as mitochondrial transmembrane potential dissipation in presence of ADP by rhodamine-123 dye based spectrofluorometer analysis; type: functional
# [23] = species on record: Rattus norvegicus; assay: Induction of mitochondrial permeabilization in rat liver mitochondria assessed as calcium efflux in presence of DTT by calcium green based spectrofluorometer analysis; type: functional
# [24] = species on record: Rattus norvegicus; assay: Induction of mitochondrial permeabilization in rat liver mitochondria assessed as calcium efflux in presence of CsA by calcium green based spectrofluorometer analysis; type: functional
# [25] = species on record: Rattus norvegicus; assay: Induction of mitochondrial permeabilization in rat liver mitochondria assessed as calcium efflux in presence of ADP by calcium green based spectrofluorometer analysis; type: functional
# [26] = tested on: SK-MEL-147; assay: Induction of apoptosis in human SK-MEL-147 cells assessed as increase in BAX expression at 20 uM after 24 hrs by western blotting analysis; type: functional, cell-based
# [27] = tested on: SK-MEL-147; assay: Induction of apoptosis in human SK-MEL-147 cells assessed as effect on BCL-2 protein expression at 20 uM after 24 hrs by western blotting analysis; type: functional, cell-based
# [28] = tested on: SK-MEL-147; assay: Cytotoxicity against human SK-MEL-147 cells assessed as reduction in cell viability in presence of BCL2 inhibitor venetoclax; type: functional, cell-based
# [29] = biological target: Cathepsin B (Homo sapiens, UniProt P07858); assay: Inhibition of cathepsin B (unknown origin) using Z-FR-AMC as substrate by spectrofluorometric analysis
# [30] = biological target: Procathepsin L (Homo sapiens, UniProt P07711); assay: Inhibition of cathepsin L (unknown origin) using Z-FR-AMC as substrate by spectrofluorometric analysis
# Sequence of Procathepsin L (P07711 whole entry): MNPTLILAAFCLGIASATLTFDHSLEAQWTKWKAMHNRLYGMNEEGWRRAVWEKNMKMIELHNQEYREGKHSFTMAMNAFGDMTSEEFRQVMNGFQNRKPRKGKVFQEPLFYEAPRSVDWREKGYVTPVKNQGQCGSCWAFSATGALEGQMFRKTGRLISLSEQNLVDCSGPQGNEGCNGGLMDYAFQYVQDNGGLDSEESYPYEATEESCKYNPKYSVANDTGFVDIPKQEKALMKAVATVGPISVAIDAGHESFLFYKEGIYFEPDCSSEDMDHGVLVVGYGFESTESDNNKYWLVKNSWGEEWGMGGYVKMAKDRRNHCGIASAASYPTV
# [31] = biological target: Cysteine proteinase B (Leishmania mexicana, UniProt P36400); assay: Inhibition of Leishmania mexicana rCPB2.8 using Z-FR-AMC as substrate by spectrofluorometric analysis
# Sequence of Cysteine proteinase B (P36400 whole entry): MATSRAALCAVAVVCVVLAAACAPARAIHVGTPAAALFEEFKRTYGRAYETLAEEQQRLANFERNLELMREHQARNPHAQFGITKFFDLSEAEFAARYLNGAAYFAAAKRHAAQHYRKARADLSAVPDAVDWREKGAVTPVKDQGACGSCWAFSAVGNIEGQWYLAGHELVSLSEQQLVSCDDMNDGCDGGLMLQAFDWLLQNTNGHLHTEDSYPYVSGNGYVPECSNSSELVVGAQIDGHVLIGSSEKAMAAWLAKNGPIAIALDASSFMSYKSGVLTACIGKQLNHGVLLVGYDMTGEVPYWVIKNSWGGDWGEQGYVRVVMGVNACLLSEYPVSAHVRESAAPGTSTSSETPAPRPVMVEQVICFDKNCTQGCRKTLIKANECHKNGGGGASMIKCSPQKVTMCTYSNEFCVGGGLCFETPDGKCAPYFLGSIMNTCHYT
# [32] = Inhibition of Leishmania mexicana rCPB3.0 using Z-FR-AMC as substrate by spectrofluorometric analysis
# [33] = Inhibition of Leishmania mexicana rCPB3.0 H84Y mutant using Z-FR-AMC as substrate by spectrofluorometric analysis
smiles,measurement,setting,value
CCOC(=O)c1cc([Se]c2ccc(OC)cc2)c2cc(OC)ccc2n1,Activity,[1],Active
same,Activity,[2],Active
same,EC50,[3],54.3 to 150 µM
same,EC50,[4],82.5 to 97.3 µM
CCOC(=O)c1cc([Se]Cc2ccccc2)c2cc(Cl)ccc2n1,Activity,[1],Active
same,Activity,[2],Active
same,EC50,[3],84.5 µM
same,EC50,[4],88.5 µM
CCOC(=O)c1cc([Te]c2ccccc2)c2cc(OC)ccc2n1,Activity,[1],Active
same,Activity,[2],Active
same,EC50,[3],128 µM
same,EC50,[4],77.4 µM
COc1ccc2nc(-c3cccs3)cc([Se]c3ccccc3)c2c1,Activity,[1],Active
same,Activity,[2],Active
same,EC50,[3],> 150 µM
same,EC50,[4],99.8 µM
CCOC(=O)c1cc(C#Cc2ccc(N)cc2)c2cc(OC)ccc2n1,Activity,[1],Active
same,Activity,[2],Active
same,EC50,[3],8.8 µM
same,EC50,[4],61 µM
CCOC(=O)c1cc([Se]c2ccccc2)c2cc(C)ccc2n1,Activity,[5],inactive
same,Activity,[1],Active
same,Activity,[2],Active
same,EC50,[3],12 µM
same,EC50,[4],15.3 µM
same,Activity,[6],Active
same,Activity,[7],Active
same,Activity,[8],Active
same,Activity,[9],Active
same,Activity,[10],Active
same,Activity,[11],Active
same,Activity,[12],inactive
same,Activity,[13],inactive
same,Activity,[14],inactive
same,Activity,[15],inactive
same,Activity,[16],Active
same,Activity,[17],Active
same,Activity,[18],Active
same,Activity,[19],Active
same,Activity,[20],inactive
same,Activity,[21],inactive
same,Activity,[22],inactive
same,Activity,[23],inactive
same,Activity,[24],inactive
same,Activity,[25],inactive
same,Activity,[26],Active
same,Activity,[27],inactive
same,Activity,[28],Active
same,IC50,[29],Not Active
same,IC50,[30],Not Active
CCOC(=O)c1cc([Se]c2ccccc2)c2cc(Br)ccc2n1,Activity,[1],Active
same,Activity,[2],Active
same,EC50,[3],12.4 µM
same,EC50,[4],20.8 µM
CCOC(=O)c1cc([Se]c2ccccc2)c2cc(Cl)ccc2n1,Activity,[1],Active
same,Activity,[2],Active
same,EC50,[3],47.1 µM
same,EC50,[4],53 µM
COc1ccc2nc(-c3c(Cl)cccc3Cl)cc([Se]c3ccccc3)c2c1,Activity,[1],Active
same,Activity,[2],Active
same,EC50,[3],> 150 µM
same,EC50,[4],17 µM
COc1ccc2nc(-c3c(C)cccc3C)cc([Se]c3ccccc3)c2c1,Activity,[1],Active
same,Activity,[2],Active
same,EC50,[3],37.3 µM
same,EC50,[4],26.9 µM
same,IC50,[31],12.9 µM
same,IC50,[32],7.44 µM
same,IC50,[33],20.4 µM
CCOC(=O)c1cc([Se]c2ccccc2C)c2cc(OC)ccc2n1,Activity,[1],Active
same,Activity,[2],Active
same,EC50,[3],38.9 µM
same,EC50,[4],14.9 µM
